{"source": "patent US20230250478A1", "about": "“DIAGNOSIS AND TREATMENT OF CHRONIC DIABETIC COMPLICATIONS USING LONG NONCODING RNAS AS TARGETS” (THE UNIVERSITY OF WESTERN ONTARIO, priority 2020, published 2023)", "assay_type_in_all_cases": "cell-based, human", "key": {"HRECs [1]": {"test_system": "HRECs", "assay": "Trypan blue exclusion assay", "settings": "2-DG-treated HRECs, data not shown"}, "HRECs [2]": {"test_system": "HRECs", "assay": "2-DG pre-treatment of HRECs, RT-qPCR", "description": "(§1) Following the concentrations documented in previous studies, DZNep (Cayman Chemical, Ann Arbor, Mich., USA; 5 μM), 5-aza-dC (Sigma, St. Louis, USA; 5 μM) or 2-DG (Sigma; 0.6 mM and 5 mM) pre-treatment was applied to HRECs for 1 hour prior to the addition of D-glucose (22,27,55,58). DZNep, 5-aza-dC or 2-DG-treated HRECs and their respective controls were collected at 48 hours for further analyses.\n(§2) As extensively described by us (22,27,33,55-57), total RNA was extracted using the TRIzol reagent (Invitrogen). Once total RNA was obtained, a spectrophotometer (260 nm; Gene Quant, Pharmacia Biotech, USA) was used to quantify RNA concentrations in which 1-2 μg of total RNA was reverse transcribed to complementary DNA (cDNA) using a high-capacity cDNA reverse-transcription kit (Applied Biosystems/Thermo Fisher Scientific). cDNA was then amplified in the LightCycler 96 System (Roche Diagnostics, Laval, QC, CAN) using the SYBR-green master mix (Takara Bio, Mountain View, Calif., USA) and specific primers for the genes of interest (Sigma; Tables 1-2). RT-qPCR results were analyzed using the LightCycler 96 SW 1.1 software (Roche) and expression levels were calculated by the relative standard curve method using β-actin as an internal control for sample normalization."}, "HOTAIR": {"test_system": "HOTAIR", "assay": "siRNA-mediated knockdown of HOTAIR in HRECs, RT-qPCR", "settings": "for reduction of HOTAIR RNA levels: HG-cultured HRECs, 48 hours, compared to SCR HG controls; for transcript levels of VEGF-A, ET-1 and ANGPTL4: custom double-stranded siRNAs, HRECs, HG", "description": "Human retinal microvascular endothelial cells (HRECs; Cell Systems, Kirkland, Wash., USA; catalog number ACBRI 181), mouse retinal microvascular endothelial cells (MRECs; Applied Biological Materials Inc., Richmond, BC, CAN), and primary lung endothelial cells (MLECs) from C57BL/6J mice were cultured in endothelial basal media-2 (EBM-2, Lonza, Walkersville, Md., USA) containing endothelial growth media-2 (EGM-2) SingleQuots (Lonza). All cells were grown in 75 cm^2 culture flasks and maintained in a humidified incubator containing 5% CO2 at 37° C. As described previously (22,55,56), in order to reduce variability for experimentation, cells were used between passages three and six and the cellular densities were determined accordingly based on the type of culture plates used for each experiment. Generally, once 80% confluence was obtained post-seeding, ECs were cultured in serum and growth factor-free medium overnight before exposure to different D-glucose levels (final glucose concentrations of 5 mmol/L, mimicking normoglycemia [NG], and 25 mmol/L, mimicking hyperglycemia [HG]) for various durations; the selected glucose levels are based on a large volume of previous experiments (22,27,33,55-57). All in vitro or ex vivo experiments were independently repeated at least three times and performed with six replicates, unless specified.\nHRECs were transfected using scrambled siRNAs (ID number: AM4635 [SCR], Thermo Fisher Scientific) or pre-designed siRNAs targeting human HOTAIR (ID: n272221 [si1-HOTAIR], Thermo Fisher Scientific; n272222 [si2-HOTAIR], Thermo Fisher Scientific; R-187951-00-0005 [SMARTpool siHOTAIR], Horizon Discovery; Table 6, top panel), EZH2 (ID: M-004218-03-0005 [SMARTpool si-EZH2], Horizon Discovery), CTCF (ID: M-020165-02-0005 [SMARTpool siCTCF], Horizon Discovery), DNMT1 (ID: s4216 [siDNMT1], Thermo Fisher Scientific) or mouse Hotair (ID: R-173526-00-0005 [SMARTpool siHOTAIR], Horizon Discovery, Table 6, bottom panel) using Lipofectamine 2000 (Invitrogen, Burlington, ON, Canada) and Opti-MEM reduced serum media (Thermo Fisher Scientific). As documented previously by us (22,27,33,55-57), cells were transfected with 100 nM of each siRNA for 3-4 hours and subsequently recovered in complete EBM-2 overnight. Cells were then serum starved the following morning, between 18-24 hours, and then incubated with specific glucose concentrations (5 mmol/L or 25 mmol/L) for 48 hours. Knockdown of the target genes were then confirmed using RT-qPCR.\nas §2"}, "HRECs [3]": {"test_system": "HRECs", "assay": "5-aza-dC pre-treatment of HRECs, RT-qPCR", "description": "as §1, §2"}, "HRECs [4]": {"test_system": "HRECs", "assay": "DZNep pre-treatment of HRECs, RT-qPCR", "description": "as §1, §2"}, "[5]": {"settings": "5-aza-dC 5 μM, HRECs, compared to HG controls"}, "[6]": {"settings": "DZNep 5 μM plus HG, 48 hours, compared to SCR HG cells"}}, "data": [{"compound": "O=CC[C@@H](O)[C@H](O)[C@H](O)CO", "note": "[2-DG, 2-deoxy-D-glucose]", "values": [{"measurement": "viability", "setting": "HRECs [1]", "value": "45-55%"}, {"measurement": "HOXD3 and HOXD10 expressions", "setting": "HRECs [2]; 5 mM 2-DG, HRECs cultured with HG, compared to HG controls", "value": "significantly upregulated"}, {"measurement": "PARP1 and P300 expressions", "setting": "HRECs [2]; 5 mM 2-DG, HRECs, HG", "value": "did not induce significant reductions"}, {"measurement": "expressions of DNMT3A and DNMT3B", "setting": "HRECs [2]; 5 mM of 2-DG, HRECs, HG", "value": "no differences were observed"}, {"measurement": "expressions of EZH2, SUZ12, EED and DNMT1", "setting": "HRECs [2]; 5 mM of 2-DG, HRECs, HG", "value": "significant reductions"}, {"measurement": "HG-induced expressions of HOTAIR, VEGF-A, ET-1, ANGPTL4, MCP-1, IL-1β, CTCF and Cytochrome B", "setting": "HRECs [2]; 2-DG 0.6 or 5 mM, HRECs, HG 48 hours", "value": "significantly blocked"}]}, {"compound": "siHOTAIR SB2: custom 21-nt duplex siRNA; sense CAUAAACAAUAUAUCUGUUGG, antisense AACAGAUAUAUUGUUUAUGAG; HOTAIR target position 1156-1178 (RNA, backbone not given here) [custom 21-nt duplex siRNA; HOTAIR target position 1156-1178]", "values": [{"measurement": "reduction of HOTAIR RNA levels", "setting": "HOTAIR", "value": "~41", "unit": "%"}, {"measurement": "transcript levels of VEGF-A, ET-1 and ANGPTL4", "setting": "HOTAIR", "value": "greatest reductions"}]}, {"compound": "Nc1ncn([C@H]2C[C@H](O)[C@@H](CO)O2)c(=O)n1", "note": "[5-aza-dC, 5-Aza-2′-deoxycytidine]", "values": [{"measurement": "reduction of DNMT3A RNA levels", "setting": "HRECs [3]; [5]", "value": "~58", "unit": "%"}, {"measurement": "reduction of DNMT3B RNA levels", "setting": "HRECs [3]; [5]", "value": "~69", "unit": "%"}, {"measurement": "ANGPTL4, P300 and PARP1 expressions", "setting": "HRECs [3]; 5-aza-dC-treated HRECs, HG", "value": "no significant differences"}, {"measurement": "HOTAIR, ET-1, CTCF, Cytochrome B, MCP-1, IL-1β, HOXD3 and HOXD10 transcripts", "setting": "HRECs [3]; 5-aza-dC-treated HRECs, HG", "value": "significant elevations"}, {"measurement": "glucose-induced increases in VEGF-A RNA expressions", "setting": "HRECs [3]; 5-aza-dC-treated HRECs, HG", "value": "significantly prevented"}, {"measurement": "HOTAIR expressions and its downstream targets", "setting": "HRECs [3]; summary statement in Example 3", "value": "can reduce"}]}, {"compound": "Nc1nccc2c1ncn2[C@@H]1C=C(CO)[C@@H](O)[C@H]1O", "note": "[DZNep, 3-Deazaneplanocin A]", "values": [{"measurement": "HOTAIR, VEGF-A, ANGPTL4, CTCF, PARP1, P300 and Cytochrome B transcripts", "setting": "HRECs [4]; DZNep 5 μM and HG, compared to SCR HG controls", "value": "statistically significant reductions"}, {"measurement": "reduction of EED transcripts", "setting": "HRECs [4]; [6]", "value": "~61", "unit": "%"}, {"measurement": "reduction of EZH2 transcripts", "setting": "HRECs [4]; [6]", "value": "~72", "unit": "%"}, {"measurement": "reduction of SUZ12 transcripts", "setting": "HRECs [4]; [6]", "value": "~48", "unit": "%"}, {"measurement": "ET-1, MCP-1, IL-1β, HOXD3 and HOXD10 transcripts", "setting": "HRECs [4]; DZNep 5 μM pre-treatment plus HG culture", "value": "significantly augmented"}, {"measurement": "HOTAIR expressions and its downstream targets", "setting": "HRECs [4]; summary statement in Example 3", "value": "can reduce"}]}, {"compound": "siHOTAIR SB1: custom 21-nt duplex siRNA; sense CCAAAGAGUCUGAUGUUUACA, antisense UAAACAUCAGACUCUUUGGGG; HOTAIR target position 457-479 (RNA, backbone not given here) [custom 21-nt duplex siRNA; HOTAIR target position 457-479]", "values": [{"measurement": "reduction of HOTAIR RNA levels", "setting": "HOTAIR", "value": "~67", "unit": "%"}, {"measurement": "transcript levels of VEGF-A, ET-1 and ANGPTL4", "setting": "HOTAIR", "value": "greatest reductions"}]}, {"compound": "siHOTAIR SB4: custom 21-nt duplex siRNA; sense GUGUAUAUAUAAUAAUGUAUU, antisense UACAUUAUUAUAUAUACACAA; HOTAIR target position 2160-2182 (RNA, backbone not given here) [custom 21-nt duplex siRNA; HOTAIR target position 2160-2182]", "values": [{"measurement": "reduction of HOTAIR RNA levels", "setting": "HOTAIR", "value": "~32", "unit": "%"}]}, {"compound": "siHOTAIR SB3: custom 21-nt duplex siRNA; sense CUCUAUAAUAUGCUUAUAUUA, antisense AUAUAAGCAUAUUAUAGAGUU; HOTAIR target position 1700-1722 (RNA, backbone not given here) [custom 21-nt duplex siRNA; HOTAIR target position 1700-1722]", "values": [{"measurement": "reduction of HOTAIR RNA levels", "setting": "HOTAIR", "value": "~57", "unit": "%"}]}]}
